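All cell lines were grown in 96-well plates and treated with compound for 48 hours. GI50: concentration for 50% inhibition of growth.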 Activity calls are given as the source filed them. Rule as the data show it: active = GI50 up to about 1.1 µM and inactive = higher.
Columns and labels:
Test in all cases: NCI anticancer screen, dose series, 48 h
[1] = tested on: 786-0
[2] = tested on: A549
[3] = tested on: SF-539
[4] = tested on: OVCAR-3
[5] = tested on: HCC 2998
[6] = tested on: HT-29
[7] = tested on: CCRF-CEM
[8] = tested on: NCI-H23
[9] = tested on: UO-31
[10] = tested on: SF-295
[11] = tested on: K562
[12] = tested on: SK-MEL-5
[13] = tested on: RXF 393
[14] = tested on: NCI-H522
[15] = tested on: CAKI-1
[16] = tested on: HOP-62
[17] = tested on: TK-10
[18] = tested on: SN12C
[19] = tested on: COLO 205
[20] = tested on: SF-268
[21] = tested on: DU-145
[22] = tested on: M14
[23] = tested on: BT-549
[24] = tested on: MCF7
[25] = tested on: SR
[26] = tested on: SW-620
[27] = tested on: Malme-3M
[28] = tested on: HCT-15
[29] = tested on: HL-60
[30] = tested on: PC-3
[31] = tested on: OVCAR-8
[32] = tested on: SNB-75
[33] = tested on: HOP-92
[34] = tested on: MOLT-4
[35] = tested on: NCI/ADR-RES
[36] = tested on: SNB-19
[37] = tested on: OVCAR-5
[38] = tested on: EKVX
[39] = tested on: SK-OV-3
[40] = tested on: IGROV-1
[41] = tested on: MDA-N
[42] = tested on: UACC-62
[43] = tested on: U-251
[44] = tested on: ACHN
[45] = tested on: OVCAR-4
[46] = tested on: UACC-257
[47] = tested on: NCI-H460
[48] = tested on: HCT-116
[49] = tested on: SK-MEL-28
[50] = tested on: NCI-H226
[51] = tested on: T47D
[52] = tested on: MDA-MB-435
[53] = tested on: MDA-MB-231
[54] = tested on: A498
[55] = tested on: RPMI-8226

For `CN(CCO)CCCC1COc2ccccc2O1` (stereo unspecified), the GI50 [1] was > 100 µM (inactive), the GI50 [2] was > 100 µM (inactive) and the GI50 [3] was > 100 µM (inactive). The GI50 [4] was > 100 µM (inactive), the GI50 [5] was > 100 µM (inactive) and the GI50 [6] was > 100 µM (inactive). For the same molecule, the GI50 [7] was > 100 µM (inactive), the GI50 [8] was > 100 µM (inactive) and the GI50 [9] was > 100 µM (inactive). The GI50 [10] was 51.3 µM (inactive), the GI50 [11] was > 100 µM (inactive) and the GI50 [12] was > 100 µM (inactive). The GI50 [13] was > 100 µM (inactive), the GI50 [14] was > 100 µM (inactive) and the GI50 [15] was > 100 µM (inactive). For the same molecule, the GI50 [16] was > 100 µM (inactive), the GI50 [17] was > 100 µM (inactive) and the GI50 [18] was > 100 µM (inactive). The GI50 [19] was > 100 µM (inactive), the GI50 [20] was 20.7 µM (inactive) and the GI50 [21] was > 100 µM (inactive). For the same molecule, the GI50 [22] was > 100 µM (inactive), the GI50 [23] was > 100 µM (inactive) and the GI50 [24] was > 100 µM (inactive). The GI50 [25] was > 100 µM (inactive), the GI50 [26] was > 100 µM (inactive) and the GI50 [27] was > 100 µM (inactive). For the same molecule, the GI50 [28] was greater than 100 µM, the GI50 [29] was > 100 µM (inactive) and the GI50 [30] was > 100 µM (inactive). For the same molecule, the GI50 [31] was > 100 µM (inactive), the GI50 [32] was > 100 µM (inactive) and the GI50 [33] was > 100 µM (inactive). The GI50 [34] was > 100 µM (inactive), the GI50 [35] was > 100 µM (inactive) and the GI50 [36] was > 100 µM (inactive). For the same molecule, the GI50 [37] was > 100 µM (inactive), the GI50 [38] was 73.3 µM (inactive) and the GI50 [39] was > 100 µM (inactive). For the same molecule, the GI50 [40] was > 100 µM (inactive), the GI50 [41] was > 100 µM (inactive) and the GI50 [42] was > 100 µM (inactive). The GI50 [43] was > 100 µM (inactive), the GI50 [44] was 63.8 µM (inactive) and the GI50 [45] was > 100 µM (inactive). For the same molecule, the GI50 [46] was > 100 µM (inactive), the GI50 [47] was > 100 µM (inactive) and the GI50 [48] was > 100 µM (inactive). The GI50 [49] was > 100 µM (inactive) and the GI50 [50] was > 100 µM (inactive).

In the case of `O=C1c2c(O)cc(O)cc2C(C2OC(CO)C(O)C(O)C2O)c2cc(CO)cc(O)c21` (stereo unspecified), the GI50 [1] is reported as > 100 µM (inactive), the GI50 [2] is reported as > 100 µM (inactive) and the GI50 [51] is reported as > 100 µM (inactive). For the same molecule, the GI50 [4] was > 100 µM (inactive), the GI50 [5] was > 100 µM (inactive) and the GI50 [6] was > 100 µM (inactive). The GI50 [7] was > 10 µM (inactive), the GI50 [8] was > 100 µM (inactive) and the GI50 [9] was > 100 µM (inactive). The GI50 [10] was > 100 µM (inactive), the GI50 [11] was > 100 µM (inactive) and the GI50 [52] was > 100 µM (inactive). For the same molecule, the GI50 [12] was > 100 µM (inactive), the GI50 [16] was > 100 µM (inactive) and the GI50 [17] was > 100 µM (inactive). The GI50 [18] was > 100 µM (inactive), the GI50 [53] was > 100 µM (inactive) and the GI50 [19] was > 100 µM (inactive). The GI50 [20] was > 100 µM (inactive), the GI50 [21] was > 100 µM (inactive) and the GI50 [22] was > 100 µM (inactive). The GI50 [23] was > 100 µM (inactive), the GI50 [24] was > 100 µM (inactive) and the GI50 [25] was > 100 µM (inactive). For the same molecule, the GI50 [54] was > 100 µM (inactive), the GI50 [26] was > 100 µM (inactive) and the GI50 [27] was 55.7 µM (inactive). The GI50 [28] was greater than 100 µM, the GI50 [29] was > 100 µM (inactive) and the GI50 [30] was > 100 µM (inactive). The GI50 [31] was > 100 µM (inactive), the GI50 [32] was 22.5 µM (inactive) and the GI50 [33] was > 100 µM (inactive). For the same molecule, the GI50 [34] was > 100 µM (inactive), the GI50 [35] was > 100 µM (inactive) and the GI50 [36] was > 100 µM (inactive). For the same molecule, the GI50 [37] was > 100 µM (inactive), the GI50 [38] was > 100 µM (inactive) and the GI50 [39] was > 100 µM (inactive). For the same molecule, the GI50 [55] was > 100 µM (inactive), the GI50 [40] was > 100 µM (inactive) and the GI50 [41] was > 100 µM (inactive). For the same molecule, the GI50 [42] was > 100 µM (inactive), the GI50 [43] was > 100 µM (inactive) and the GI50 [44] was > 100 µM (inactive). The GI50 [45] was > 100 µM (inactive), the GI50 [46] was > 100 µM (inactive) and the GI50 [47] was > 100 µM (inactive). The GI50 [48] was > 100 µM (inactive), the GI50 [49] was > 100 µM (inactive) and the GI50 [50] was > 100 µM (inactive).

— ChEMBL document CHEMBL1201862, “PubChem BioAssay data set” (2004)
